Like-named read-outs stand apart in the source and are kept apart here.
Tests used:
[1] = Plasma 5-HTP levels in mice given 5-HTP and/or carbidopa via food for 14 days; type: in vivo; conditions: for augmentation of the 5-HTP plasma elevation induced by 5-HTP: carbidopa 2, 5 or 10 mg/kg/day added to 5-HTP 200 mg/kg/day, similar in WT and 5-HTHypo mice
Source text: (§1) Mice: Adult mice were used, both wildtype (WT) mice with normal 5-HT levels and ‘5-HTHypo’ mice with reduced brain 5-HT synthesis and levels (Beaulieu et al, 2008). The 5-HTHypo mice are a naturalistic model of brain 5-HT deficiency, which is known to be a pathogenic factor in several CNS disorders, e.g. depression and suicide.
(§2) Drug treatments: Carbidopa was used as a PDI. To model oral drug delivery occurring in humans during a therapeutic scenario, 5-HTP and carbidopa was delivered via the mouse food (standard chow). This approach distributed the drug delivery over time, imparting a measure of ‘slow-release’ (aka sustained-, extended-, time-, controlled-release) delivery. 5-HTP was administered in a dose of 200 mg/kg/day. Carbidopa was administered in doses of 2, 5 or 10 mg/kg/day in addition to 5-HTP, to assess the effect of carbidopa on the outcomes of 5-HTP treatment. To assess the effect of carbidopa alone, groups of mice were also administered carbidopa 10 mg/kg/day, the highest carbidopa dose, without concomitant 5-HTP. Comparisons were made to untreated mice. Duration of all treatments was 14 days, which is considered chronic in mouse experiments.
(§3) Sample collection: During treatments blood samples were collected to assess plasma levels of 5-HTP and carbidopa. At end of treatments mice were euthanized and brain tissues (frontal cortex) were collected.
(§4) Quantitative analysis: Levels of plasma 5-HTP, plasma carbidopa, brain 5-HT, and brain 5-hydroxyindoleacetic acid (5-HIAA, major 5-HT metabolite) were quantified using HPLC, as described (Jacobsen et al, 2012b). The limits of detection for 5-HT and 5-HTP in plasma were 1 ng/ml and for carbidopa in plasma 2 ng/ml (FIG. 4C).

brain 5-HT = assay: Brain (frontal cortex) 5-HT tissue levels in mice after 14 days of treatment; type: in vivo; conditions: for augmentation of the brain 5-HT tissue elevation induced by 5-HTP: carbidopa 2, 5 or 10 mg/kg/day added to 5-HTP 200 mg/kg/day, more pronounced in 5-HTHypo mice
Source text: as §1, §2, §3, §4

brain 5-HIAA = assay: Brain (frontal cortex) 5-HIAA tissue levels in mice after 14 days of treatment; type: in vivo; conditions: for augmentation of the brain 5-HIAA tissue elevation induced by 5-HTP: carbidopa 2, 5 or 10 mg/kg/day added to 5-HTP 200 mg/kg/day, more pronounced in 5-HTHypo mice
Source text: as §1, §2, §3, §4

[2] = cited from earlier work
[3] = animal studies (Shindo et al, 1977); cited from earlier work
[4] = HPLC electrochemical quantification of carbidopa in mouse plasma; type: in vivo, mice
Protocol: FIG. 4A-4D. HPLC electrochemical quantification of carbidopa in plasma. FIG. 4A: 10 ng/ml standard in perchloric acid. Carbidopa peak visible at 24 min. FIG. 4B: Plasma extract from mouse not treated with carbidopa. […] Baseline undulations at 24 min is detector noise. FIG. 4C: Plasma extract from a mouse not treated with carbidopa, but the plasma spiked with carbidopa to a concentration of 2 ng/ml prior to extraction. Carbidopa peak visible at 24 min. FIG. 4D: Plasma extract from mouse treated with 10 mg/kg/day carbidopa. […] Baseline undulations at 24 min is detector noise, as indicated.
as §2, §3, §4

[5] = Carbidopa plasma levels in humans at therapeutic doses (literature); type: in vivo; conditions: reported human chronic studies with carbidopa and 5-HTP; extrapolated across references
[6] = cited from earlier work; remark: listed apart in the source
[7] = animals; including kidney insufficiency and growth anomalies; cited from earlier work
[8] = system: aromatic amino acid decarboxylase enzyme (AAAD); conditions: after oral administration (Da Prada et al, 1987); cited from earlier work
[9] = 5-HTP 200 mg/kg/day alone via food, 14 days, vs untreated
[10] = carbidopa 10 mg/kg/day alone, without 5-HTP, 14 days
[11] = steady state, therapeutic scenario

In the case of `N[C@@H](Cc1c[nH]c2ccc(O)cc12)C(=O)O` [5-HTP, 5-hydroxytryptophan], the “levels of plasma 5-HTP” value ([1]; 5-HTP 200 mg/kg/day alone via food, 14 days, vs untreated, WT and 5-HTHypo mice) is reported as “elevated”, the “levels of brain 5-HT” value (brain 5-HT; [9]) is reported as “elevated” and the “levels of brain 5-HIAA” value (brain 5-HIAA; [9]) is reported as “elevated”. For the same compound, the oral bioavailability ([2]; 5-HTP (Gijsman et al, 2002)) was “modest”, the “T1/2 (elimination half-life)” value ([2]; 5-HTP in humans, oral) was ~2 h and the TMax ([2]; 5-HTP in humans, oral) was ~1 h. The T1/2 ([2]; immediate-release oral 5-HTP) was “about 2 hours”, the TMax ([2]; immediate-release oral 5-HTP) was 1 to 2 h and the “exogenously administered 5-HTP converted to 5-HT during transport over the intestinal wall” value [3] was “more than 50%”.

With `C[C@@](Cc1ccc(O)c(O)c1)(NN)C(=O)O` [carbidopa] the “enhancing 5-HTP bioavailability and pharmacodynamic (brain 5-HT) effects” value ([1]; 5-HTP:carbidopa ratios of 20:1 to 100:1) was “effective”, the “effect on plasma 5-HTP” value [1, 10] was “no effects” and the “augmentation of the 5-HTP plasma elevation induced by 5-HTP” value [1] was “manifold and dose-dependently augmented”. The “augmentation of the 5-HTP plasma elevation induced by 5-HTP” value ([1]; listed as Carbidopa) was “dose-dependently augmented”, the “effect on brain 5-HT” value (brain 5-HT; [10]) was “no effects” and the “augmentation of the brain 5-HT tissue elevation induced by 5-HTP” value (brain 5-HT) was “manifold and dose-dependently augmented”. For the same compound, the “augmentation of the brain 5-HT tissue elevation induced by 5-HTP” value (brain 5-HT; listed as Carbidopa) was “dose-dependently augmented”, the “effect on brain 5-HIAA” value (brain 5-HIAA; [10]) was “no effects” and the “augmentation of the brain 5-HIAA tissue elevation induced by 5-HTP” value (brain 5-HIAA) was “manifold and dose-dependently augmented”. The “augmentation of the brain 5-HIAA tissue elevation induced by 5-HTP” value (brain 5-HIAA; listed as Carbidopa) was “dose-dependently augmented”, the plasma carbidopa levels ([4]; carbidopa 10 mg/kg/day, the highest dose, limit of detection 2 ng/ml) was < 2 ng/mL and the “carbidopa peak in HPLC of plasma extract (FIG. 4D)” value ([4]; mouse treated with 10 mg/kg/day carbidopa) was “No carbidopa peak visible”. The “plasma exposure levels lower than usual systemically active levels” value ([4]; relative to 25 ng/ml) was “at least 12 times”, the “average carbidopa plasma levels” value [5] was > 25 ng/mL and the “usual systemically active plasma levels” value ([6]; Verhagen et al, 2015, Yeh et al, 1989) was 25 ng/mL. For the same compound, the “average plasma levels of carbidopa at maintenance doses” value [6, 11] was ≥ 25 ng/mL, the “range of average plasma levels of carbidopa at maintenance doses” value [6, 11] was 25 to 150 ng/mL and the “toxicity of chronic PDI treatment without levodopa” value [7] was “significant toxic effects”.

In the case of `NC(CO)C(=O)NNCc1ccc(O)c(O)c1O` (centres unmarked) [benserazide], the “potency as inhibitor of AAAD in the peripheral organs relative to carbidopa” value [8] is listed as 10 fold and the “toxicity of chronic PDI treatment without levodopa” value [7] is listed as “significant toxic effects”.

From patent publication US11337963B2, “Compositions and methods of enhancing 5-hydroxytryptophan bioavailability” (Duke University, priority 2018, dated 2022)
